# What was measured:
# [1] = system: ALP activity in HOS cells; assay: Alkaline phosphatase (osteoblast marker enzyme) activity in HOS cells; format: cell-based, human; details: concentration not given
# Source text: In the following tests, three kinds of cell lines were used. The human osteosarcoma cell lines, MG-63 (ATCC No. CRL-1427) and HOS (ATCC No. CRL-1543), and mouse muscle C2C12 muscle cells (ATCC No. CRL-1772) were purchased from ATCC (American Type Culture Collection, Rockville, USA), and cultured in Dulbecco's modified Eagle's medium (DMEM) supplemented with 10% fetal bovine serum (FBS).
# To examine whether the Compound 1 affects positively or negatively osteoblast activity, alkaline phosphatase (ALP) activity was measured. HOS cells were aliquotted onto a 96-well microplate at a density of 5×10^3 cells per well, and cultured. When forming a monolayer, the cells were treated with the naturally extracted compound (Compound 1) at prescribed concentrations. After incubation in 10% FBS-containing DMEM for 48 hrs, the cells were treated with 0.1% Triton X-100/saline for 30 min at 37° C. A portion of each cell lysate was reacted with 0.1 N glycine-NaCh buffer (pH 10.4) for 30 min at 37° C. in the presence of 100 mM nitrophenyl phosphate (PNPP) as a substrate of alkaline phosphate. The amount of PNP (ρ-nitrophenol) released from the substrate PNPP was determined by measuring absorbance at 405 nm. Protein amount was determined by a modified Lowry method, and enzyme activity was designated as nmol substrate cleaved/h/mg protein.
# [2] = system: osteoclast progenitor cells; assay: Formation of TRAP-positive multinucleated cells from osteoclast progenitors; format: cell-based, mice; details: concentration not given, control 132
# Description: In order to investigate the effects of the Compound 1 on differentiation and activity of osteoclasts, when differentiation of osteoclast progenitors was induced, the activity of Tartrate-resistant acid phosphatase (TRAP) as an osteoclastic marker enzyme was investigated, and, when differentiated osteoclasts were cultured on calcium phosphate-coated plates (OAAS, OCT Inc.), resorption activity (formation of resorption pits) were measured.
# First, bone marrow cells were isolated, as follow. After sacrificing 7-9 week female mice by cervical dislocation, femur and tibia were excised aseptically while removing attached soft tissues. After cutting both ends of long bones, 1 ml of an enzyme solution, containing 0.1% collagenase (Gibco), 0.05% trypsin and 0.5 mM EDTA (Gibco), was injected to the bone marrow cavity at one end using a syringe with a 26-guage needle, and bone marrow was then collected. After shaking the recovered bone marrow for 30 min, bone marrow cells were collected, and cultured in α-minimum essential medium (α-MEM) supplemented with 10% FBS for 24 hrs. […]
# Osteoclasts are derived from hematopoietic cells belonging to the monocyte/macrophage lineage originating in bone marrow. […] The formed TRAP-positive multinucleated cells containing three or more nuclei were counted as osteoclasts, and the counted cell number was compared to that of a control not treated with the Compound 1.
# [3] = system: ovariectomized white mice; assay: Bone mineral densitometer test, therapeutic effect on osteoporosis; format: in vivo; details: test group
# Description: After ovariectomy, female white mice weighing about 250 g were bred for four weeks. After checking the onset of osteoporosis in the mice, each of the mice was orally administered with 220 μl of the Compound 1 dissolved in 30 ml water for four weeks.
# BMD measurement was performed before ovariectomy and every week for eight weeks after ovariectomy, using a bone mineral densitometer, XCT 540 Research SA made in Germany.
# After anesthetizing the mice being bred in cages by intraperitoneal injection of a mixture of Ketamine HCl (ketara 10 mg/kg) and 2% xylazine HCl (Roupun 0.15 ml/kg), BMD measurement was made at a voxel size of 0.1×0.1 mm^2 and threshold values of 280 mg/cm^2 for cancellous bone and 500 mg/cm^2 for compact bone. The analysis sites at the proximal tibias were determined by Scout scans (10 mm/sec), and BMD was measured at three slices at the determined sites by CT scans (7 mm/sec). BMD measurement was performed twice or more at the same site every week during eight weeks after ovariectomy.
# [4] = listed as compound prepared in Example 1
smiles,measurement,setting,value
"O=Cc1ccc(CO)o1 [Compound 1, 5-hydroxymethylfuran-2-carboxyaldehyde]",Alkaline phosphatase activity compared to control,[1],about 121%
same,Alkaline phosphatase activity compared to control,[1]; [4],120%
same,Number of TRAP-positive multinucleated cells,[2],77
same,Number of TRAP-positive multinucleated cells,[2]; [4],remarkably reduced
same,"Change in BMD, %","[3]; Week 1 after ovariectomy (before administration), control −3",−2.9%
same,"Change in BMD, %","[3]; Week 3 after ovariectomy (before administration), control −15",−14%
same,"Change in BMD, %","[3]; Week 4 after ovariectomy (start of oral 220 μl administration), control −19",−17%
same,"Change in BMD, %","[3]; Week 7 after ovariectomy, oral 220 μl from week 4, control −25.9",−19%
